# Measurements reported in ChEMBL document CHEMBL1201862, “PubChem BioAssay data set” (2004).
#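 Interpolation was linear, between the two tested concentrations surrounding the appropriate level; five concentrations were tested over 48 hours in 96-well plates. The concentration for 50% growth inhibition is given as GI50.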 The source made the active and inactive calls. No stated cut-off is given here; in the data, active = GI50 up to about 1.1 µM and inactive = higher.
# Tests used:
# Assay in all cases: NCI tumour cell line growth inhibition, 48 h
# 786-0 = test system: 786-0
# A498 = test system: A498
# COLO 205 = test system: COLO 205
# Hs-578T = test system: Hs-578T
# IGROV-1 = test system: IGROV-1
# KM12 = test system: KM12
# M14 = test system: M14
# MCF7 = test system: MCF7
# NCI-H226 = test system: NCI-H226
# NCI-H23 = test system: NCI-H23
# NCI-H522 = test system: NCI-H522
# NCI/ADR-RES = test system: NCI/ADR-RES
# OVCAR-4 = test system: OVCAR-4
# RPMI-8226 = test system: RPMI-8226
# SK-MEL-28 = test system: SK-MEL-28
# SNB-19 = test system: SNB-19
# SW-620 = test system: SW-620
# T47D = test system: T47D
# UACC-62 = test system: UACC-62
# SN12C = test system: SN12C
Compound,GI50 (786-0),GI50 (A498),GI50 (COLO 205),GI50 (Hs-578T),GI50 (IGROV-1),GI50 (KM12),GI50 (M14),GI50 (MCF7),GI50 (NCI-H226),GI50 (NCI-H23),GI50 (NCI-H522),GI50 (NCI/ADR-RES),GI50 (OVCAR-4),GI50 (RPMI-8226),GI50 (SK-MEL-28),GI50 (SNB-19),GI50 (SW-620),GI50 (T47D),GI50 (UACC-62),GI50 (SN12C)
CN(C)S(=O)(=O)Nc1nnc(S(N)(=O)=O)s1,> 100 µM (inactive),> 100 µM (inactive),> 100 µM (inactive),> 100 µM (inactive),> 100 µM (inactive),> 100 µM (inactive),> 100 µM (inactive),> 100 µM (inactive),> 100 µM (inactive),> 100 µM (inactive),> 100 µM (inactive),> 100 µM (inactive),> 100 µM (inactive),> 100 µM (inactive),> 100 µM (inactive),> 100 µM (inactive),> 100 µM (inactive),64.3 µM (inactive),> 100 µM (inactive),–
CCN(CC)/C(Cl)=C(Cl)\C(=C1\Nc2ccc(OC)cc21)[N+](=O)[O-],47.9 µM (inactive),> 100 µM (inactive),43.4 µM (inactive),78.7 µM (inactive),88.1 µM (inactive),69.5 µM (inactive),> 100 µM (inactive),54.8 µM (inactive),18.9 µM (inactive),56.6 µM (inactive),20.2 µM (inactive),70.6 µM (inactive),30.8 µM (inactive),–,55.7 µM (inactive),61 µM (inactive),43 µM (inactive),24.6 µM (inactive),88.5 µM (inactive),> 100 µM (inactive)
CC(=O)OC(Cn1cncn1)(Cn1cncn1)c1ccc(Cl)cc1Cl,> 100 µM (inactive),> 100 µM (inactive),> 100 µM (inactive),> 100 µM (inactive),> 100 µM (inactive),> 100 µM (inactive),> 100 µM (inactive),> 100 µM (inactive),> 100 µM (inactive),–,> 100 µM (inactive),> 100 µM (inactive),> 100 µM (inactive),> 100 µM (inactive),> 100 µM (inactive),> 100 µM (inactive),> 100 µM (inactive),> 100 µM (inactive),–,–
Nc1cc(N)c(/N=N/c2cccc3c(S(=O)(=O)O)cccc23)cc1/N=N/c1cc([N+](=O)[O-])ccc1O,42.1 µM (inactive),27 µM (inactive),38.5 µM (inactive),36.8 µM (inactive),15.6 µM (inactive),33.2 µM (inactive),26.1 µM (inactive),32.6 µM (inactive),–,45 µM (inactive),17.5 µM (inactive),21.9 µM (inactive),18.4 µM (inactive),35.6 µM (inactive),–,48.9 µM (inactive),28.8 µM (inactive),38.8 µM (inactive),22.3 µM (inactive),32.3 µM (inactive)
C[C@H](N)C(=O)N[C@@H]1[C@H]2C(=C(O)C[C@@H](O)[C@@H]2O)C(=O)O[C@]1(C)C(Cl)Cl [BACTOBOLIN],0.0655 µM (active),0.329 µM (active),0.105 µM (active),0.125 µM (active),0.361 µM (active),0.172 µM (active),0.128 µM (active),0.146 µM (active),0.195 µM (active),0.183 µM (active),0.16 µM (active),3.36 µM (inactive),0.133 µM (active),–,0.234 µM (active),0.167 µM (active),0.145 µM (active),0.209 µM (active),0.23 µM (active),0.164 µM (active)
CCOC(=O)Cc1c(C(=O)OCC)[n+]([O-])c2cc(Cl)c(Cl)cc2[n+]1[O-],1.54 µM (inactive),2.31 µM (inactive),1.73 µM (inactive),2.27 µM (inactive),1.01 µM (active),1.32 µM (inactive),2.29 µM (inactive),1.57 µM (inactive),–,2.18 µM (inactive),1.84 µM (inactive),2.78 µM (inactive),1.89 µM (inactive),0.431 µM (active),4.68 µM (inactive),3.5 µM (inactive),1.52 µM (inactive),0.982 µM (active),2.18 µM (inactive),2.49 µM (inactive)
CC(C)(C)OC(=O)N1Cc2cc(O)ccc2C[C@H]1C(=O)O,> 100 µM (inactive),> 100 µM (inactive),> 100 µM (inactive),> 100 µM (inactive),> 100 µM (inactive),> 100 µM (inactive),–,> 100 µM (inactive),> 100 µM (inactive),> 100 µM (inactive),> 100 µM (inactive),> 100 µM (inactive),> 100 µM (inactive),–,> 100 µM (inactive),> 100 µM (inactive),> 100 µM (inactive),> 100 µM (inactive),> 100 µM (inactive),> 100 µM (inactive)
CN1C(NN)=NS(=O)(=O)c2ccccc21,> 100 µM (inactive),> 100 µM (inactive),> 100 µM (inactive),> 100 µM (inactive),> 100 µM (inactive),> 100 µM (inactive),> 100 µM (inactive),> 100 µM (inactive),> 100 µM (inactive),> 100 µM (inactive),> 100 µM (inactive),> 100 µM (inactive),> 100 µM (inactive),–,> 100 µM (inactive),> 100 µM (inactive),> 100 µM (inactive),> 100 µM (inactive),> 100 µM (inactive),> 100 µM (inactive)
CC(=O)O[C@H]1C(=O)[C@@]2(C)[C@H]([C@H](OC(=O)c3ccccc3)[C@]3(O)C[C@H](OC(=O)[C@H](O)[C@@H](NC(=O)c4ccco4)c4ccccc4)C(C)=C1C3(C)C)[C@]1(OC(C)=O)CO[C@@H]1C[C@@H]2O,0.00421 µM (active),0.0141 µM (active),< 0.00125 µM (active),< 0.00125 µM (active),0.0019 µM (active),< 0.00125 µM (active),< 0.00125 µM (active),< 0.00125 µM (active),0.00126 µM (active),0.00136 µM (active),< 0.00125 µM (active),2.64 µM (inactive),> 10.7 µM (inactive),< 0.00125 µM (active),> 12.5 µM (inactive),0.00134 µM (active),< 0.00125 µM (active),< 0.00125 µM (active),< 0.00125 µM (active),–
CC1OC(OC2C(CO)OC(O[C@H]3CC[C@@]4(C)C(=CC[C@H]5[C@@H]6C[C@@H]7O[C@](O)(CC[C@H](CO)COC8OC(CO)C(O)C(O)C8O)[C@@H](C)[C@@H]7[C@@]6(C)CC[C@@H]54)C3)C(OC3OC(C)C(O)C(O)C3O)C2O)C(O)C(O)C1O (stereo not given in full),> 100 µM (inactive),> 100 µM (inactive),> 100 µM (inactive),> 100 µM (inactive),> 100 µM (inactive),> 100 µM (inactive),> 100 µM (inactive),> 100 µM (inactive),–,> 100 µM (inactive),> 100 µM (inactive),91.4 µM (inactive),> 100 µM (inactive),> 100 µM (inactive),> 100 µM (inactive),> 100 µM (inactive),> 100 µM (inactive),> 100 µM (inactive),> 100 µM (inactive),> 100 µM (inactive)
COC(=O)CCC(=O)c1ccc2c(c1)CC1(C2)Cc2ccc3c(c2C1)CCCC3=O (stereo not given),29.9 µM (inactive),20.7 µM (inactive),21.5 µM (inactive),56.1 µM (inactive),21.9 µM (inactive),14.7 µM (inactive),9.1 µM (inactive),12.2 µM (inactive),27.8 µM (inactive),31 µM (inactive),21.4 µM (inactive),29 µM (inactive),24.1 µM (inactive),–,25.5 µM (inactive),27.2 µM (inactive),20.7 µM (inactive),34.8 µM (inactive),> 26.1 µM (inactive),38.1 µM (inactive)
CCCn1cnc2c(SCc3ccc(Cl)cc3)nc(N)nc21,29.6 µM (inactive),16.7 µM (inactive),–,47.2 µM (inactive),40.4 µM (inactive),21.5 µM (inactive),32.4 µM (inactive),31 µM (inactive),–,31 µM (inactive),16.5 µM (inactive),22.6 µM (inactive),32.7 µM (inactive),16.1 µM (inactive),29 µM (inactive),51.6 µM (inactive),36.3 µM (inactive),18.9 µM (inactive),21.6 µM (inactive),19.7 µM (inactive)
O=C(O)c1nc(-c2ccccc2)ncc1-c1nnnn1-c1ccccc1,> 100 µM (inactive),> 100 µM (inactive),> 100 µM (inactive),> 100 µM (inactive),> 100 µM (inactive),> 100 µM (inactive),> 100 µM (inactive),> 100 µM (inactive),> 100 µM (inactive),> 100 µM (inactive),> 100 µM (inactive),> 100 µM (inactive),–,> 100 µM (inactive),> 100 µM (inactive),> 100 µM (inactive),> 100 µM (inactive),> 100 µM (inactive),> 100 µM (inactive),> 100 µM (inactive)
COc1ccc(S(=O)(=O)n2c3c(c4ccccc42)[C@@H]2[C@@H](CCCN2C(=O)C[S+]([O-])c2ccc(C)cc2)[C@H](Cl)C3)cc1 (stereo not given in full),> 100 µM (inactive),> 100 µM (inactive),> 100 µM (inactive),> 100 µM (inactive),1.51 µM (inactive),> 100 µM (inactive),> 100 µM (inactive),> 100 µM (inactive),> 100 µM (inactive),> 100 µM (inactive),> 100 µM (inactive),> 100 µM (inactive),–,–,> 100 µM (inactive),> 100 µM (inactive),> 100 µM (inactive),> 100 µM (inactive),> 100 µM (inactive),> 100 µM (inactive)
